From ChEMBL document CHEMBL3232869, “Anti-inflammatory components of Euphorbia humifusa Willd” (Bioorg Med Chem Lett, 2014)
Calls of active or inactive are those of the source. The rule behind the calls is not given here.

Experiments:
[1] = test system: RAW264.7; assay: Cytotoxicity against mouse RAW264.7 cells assessed as cell viability at 50 uM after 18 hrs by MTT assay in presence of LPS; type: cell-based; conditions: raw264.7, 18 h
[2] = test system: RAW264.7; assay: Antiinflammatory activity in mouse RAW264.7 cells assessed as inhibition of LPS-induced nitric oxide production at 0.4 uM after 18 hrs by griess reaction analysis; type: functional, cell-based
[3] = test system: RAW264.7; assay: Antiinflammatory activity in mouse RAW264.7 cells assessed as inhibition of LPS-induced nitric oxide production after 18 hrs by griess reaction analysis; type: functional, cell-based; conditions: RAW264.7, 18 h
[4] = test system: RAW264.7; assay: Antiinflammatory activity in mouse RAW264.7 cells assessed as inhibition of LPS-induced nitric oxide production at 10 uM after 18 hrs by griess reaction analysis; type: functional; conditions: for inhibition at 10 µM: RAW264.7, 18 h
[5] = test system: RAW264.7; assay: Antiinflammatory activity in mouse RAW264.7 cells assessed as inhibition of LPS-induced TNF-alpha secretion after 18 hrs by sandwich ELISA; type: functional, cell-based; conditions: RAW264.7, 18 h
[6] = test system: RAW264.7; assay: Antiinflammatory activity in mouse RAW264.7 cells assessed as inhibition of LPS-induced TNF-alpha secretion at 0.4 uM after 18 hrs by sandwich ELISA; type: functional, cell-based
[7] = test system: RAW264.7; assay: Antiinflammatory activity in mouse RAW264.7 cells assessed as inhibition of LPS-induced TNF-alpha secretion at 10 uM after 18 hrs by sandwich ELISA; type: functional; conditions: for inhibition at 10 µM: RAW264.7, 18 h
[8] = biological target: T1, Bifunctional epoxide hydrolase 2 (Homo sapiens) (UniProt P34913); assay: Inhibition of sEH (unknown origin) assessed as substrate PHOME hydrolysis at 25 uM after 1 hr by fluorescence method
T1 sequence (whole entry): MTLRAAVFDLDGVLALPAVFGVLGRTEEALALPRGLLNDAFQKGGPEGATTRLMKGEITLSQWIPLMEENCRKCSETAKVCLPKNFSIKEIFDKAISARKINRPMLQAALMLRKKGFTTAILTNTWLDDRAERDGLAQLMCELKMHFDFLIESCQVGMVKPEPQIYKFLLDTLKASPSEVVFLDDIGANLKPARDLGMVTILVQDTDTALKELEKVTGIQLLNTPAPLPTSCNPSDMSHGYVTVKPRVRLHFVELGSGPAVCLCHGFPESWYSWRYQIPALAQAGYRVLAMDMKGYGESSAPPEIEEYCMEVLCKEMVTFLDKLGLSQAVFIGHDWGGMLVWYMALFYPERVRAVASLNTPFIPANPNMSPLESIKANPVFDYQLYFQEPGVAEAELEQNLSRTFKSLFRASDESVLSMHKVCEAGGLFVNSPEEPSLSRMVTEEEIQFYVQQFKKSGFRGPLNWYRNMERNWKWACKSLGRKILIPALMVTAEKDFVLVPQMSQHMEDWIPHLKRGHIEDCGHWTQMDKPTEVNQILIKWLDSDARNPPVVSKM

[9] = biological target: T2, Bifunctional epoxide hydrolase 2 (Homo sapiens, UniProt P34913); assay: Inhibition of sEH (unknown origin) assessed as substrate PHOME hydrolysis after 1 hr by fluorescence method
T2 sequence (P34913 whole entry): T1 sequence (whole entry)

Compound | Activity [1] | inhibition [2] | IC50 [3] [µM] | inhibition at 10 µM [4] [%] | IC50 [5] [µM] | inhibition [6] | inhibition at 10 µM [7] [%] | inhibition [4] | inhibition [8] [%] | IC50 [9] [µM] | inhibition [7]
COC/C=C/c1cc(OC)c(O[C@@H]2O[C@H](CO)[C@@H](O)[C@H](O)[C@H]2O)c(OC)c1 | Non-toxic | inactive | 17.2 | 30 | 17.5 | inactive | 21.5 |  |  |  | 
O=C(OC[C@H]1O[C@@H](OC(=O)c2cc(O)c(O)c(O)c2)[C@H](O)[C@@H](OC(=O)c2cc(O)c(O)c(O)c2)[C@@H]1OC(=O)c1cc(O)c(O)c(O)c1)c1cc(O)c(O)c(O)c1 | Non-toxic | inactive | > 50 |  | 22.6 | inactive |  | inactive | > 40 | 36.1 | Active
COc1cc(/C=C/CO)cc(OC)c1O[C@@H]1O[C@H](CO)[C@@H](O)[C@H](O)[C@H]1O [SYRINGIN] | Non-toxic | inactive | 24 |  | 34.9 | inactive |  | Active | < 40 |  | Active
O=c1c(O[C@@H]2O[C@H](CO)[C@@H](O)[C@H](O)[C@H]2O)c(-c2cc(O)c(O)c(O)c2)oc2cc(O)cc(O)c12 | Non-toxic | inactive | 21.2 |  |  | inactive |  | Active | > 40 | 17.2 | Active
O=c1oc2c(O)c(O)cc3c(=O)oc4c(O)c(O)cc1c4c23 [ELLAGIC ACID] | Non-toxic | inactive | 35.7 |  | > 50 | inactive |  | inactive | > 40 | 20.7 | Active
COC(=O)c1cc(O)c(O)c(O)c1 [GALLIC ACID METHYL ESTER] | Non-toxic | inactive | 11.1 | 35.1 | 29.4 | inactive |  |  |  |  | Active
O=C(O[C@H]1[C@H](Oc2c(-c3ccc(O)c(O)c3)oc3cc(O)cc(O)c3c2=O)O[C@H](CO)[C@@H](O)[C@@H]1O)c1cc(O)c(O)c(O)c1 | Non-toxic | inactive |  |  | 16.4 | inactive | 21.5 | inactive | > 40 | 18 | 
O=C(CCc1ccc(O)cc1)c1c(O)cc(O)cc1O[C@@H]1O[C@H](CO)[C@@H](O)[C@H](O)[C@H]1O [PHLORIZIN] | Non-toxic | inactive |  |  | 14.4 | inactive | 21.5 | inactive | > 40 | 41.7 | 
C[C@@H]1O[C@@H](Oc2c(-c3ccc(O)c(O)c3)oc3cc(O)cc(O)c3c2=O)[C@H](OC(=O)c2cc(O)c(O)c(O)c2)[C@H](O)[C@H]1O | Non-toxic | inactive |  |  | 26.1 | inactive |  | inactive | > 40 | 18.6 | Active
C[C@@H]1O[C@@H](OC[C@H]2O[C@@H](Oc3c(-c4ccc(O)cc4)oc4cc(O)cc(O)c4c3=O)[C@H](O)[C@@H](O)[C@@H]2O)[C@H](O)[C@H](O)[C@H]1O [NICOTIFLOROSIDE] | Non-toxic | inactive | 45.3 |  | 41.5 | inactive |  | inactive |  |  | Active
CC(=O)O[C@H]1[C@H](OC[C@H]2O[C@@H](Oc3ccc(O)cc3)[C@H](O)[C@@H](O)[C@@H]2O)O[C@@H](C)[C@H](OC(=O)c2ccc(O)cc2)[C@H]1O | Non-toxic | inactive | > 50 |  | > 50 | inactive |  | inactive |  |  | Active
